Earlier results, collected in US6413525B1, “Methods of exfoliation using N-acetyl glucosamine” (Color Access, Inc., priority 1999, dated 2002).

Tested on: skin
Conditions: as disclosed in WO97/12597

SMILES: CC(=O)N[C@H]1C(O)O[C@H](CO)[C@@H](O)[C@@H]1O (stereo partly drawn) [N-acetyl-D-glucosamine]
- efficacy as a topical desquamating agent: not found to be effective
